In assay [1] the test system is NAMPT-mediated NAD+/NMN formation in A2780 tumor cells. Description: Assay for NAD+/NMN Levels in A2780 Cells. The class given is cell-based. Conditions: Homo sapiens, A2780, 24 h, 24 hours treatment, averaged. The method, then: A2780 (the NCI-DCTD Tumor repository) tumor cells, an ovarian cancer cell line, are cultured in RPMI 1640 (SH30255.01, Hyclone) supplemented with 10% FBS. […] FK866 (100 nM) is also included as a positive control for maximum inhibition (100%). Each compound is tested 1-4 times in this assay.
To assess NAD^+/NMN levels in the cell, A2780 cells grown in the above referenced 96-well plates are lysed with RIPA buffer (Pierce) followed by addition of 50 μL of 0.2 N HCl. The resulting cell lysates are incubated at 60° C. for 10 minutes and neutralized with 50 μL of 0.2 N NaOH. After centrifugation at 2000×g for 15 minutes, the supernatants (50 μL) are collected. The NAD^+/NMN assays are described by Putt and Hergenrother (Putt, K. S, and Hergenrother, P. J., An enzymatic assay for poly(ADP-ribose) polymerase-1 (PARP-1) via the chemical quantitation of NAD^+: application to the high-throughput screening of small molecules as potential inhibitors. Analytical Biochemistry, 2004, 326, 78-86) with modifications. The resulting lysates are mixed with 20 μL of 0.2 N KOH and 20 μL of 20% acetophenone, and incubated at 90° C. for 10 minutes followed by addition of 90 μL of formic acid. After incubation at 90° C. for 10 minutes, the resulting preparations are measured for their fluorescence at the excitation and emission wavelength of 360 and 450 nm, respectively as described by Putt and Hergenrother (2004).

The next assay concerns A2780 cells. Briefly: A2780 Proliferation Assay ±NAM (Nicotinamide). Format: cell-based. Conditions: Homo sapiens, A2780, 72 h, absence of NAM, read-out: IC50 (proliferation of A2780 cells in the absence of NAM). The method, then:
The purpose of this assay is to measure the ability of a compound to inhibit proliferation of A2780 cells (the NCI-DCTD Tumor repository) dependent on the NAMPT-mediated NAD^+ formation in the presence or absence of higher concentrations of NAM (10 mM) in vitro. The A2780 cell proliferation assay uses assay-ready frozen cells. To prepare assay-ready frozen A2780 cells, A2780 cells, an ovarian cancer cell line, are cultured in growth media containing RPMI 1640 (Gibco 30-2001) supplemented with 10% FBS, in T-150 flasks for 3-4 days. Cells are then treated with 4 mL of 0.25% (v/v) trypsin for 1 minute (Hyclone SH30042). Trypsin-treated cells are then diluted with 10 mL of growth media, and the cell slurry is gently mixed and then decanted to a centrifuge tube. Cells are counted and then pelleted by centrifugation at 1400 rpm for 5 minutes. After centrifugation the supernatant is removed and the cell pellets are re-suspended in GIBCO® RECOVERY™ Cell Culture Freezing Medium (Invitrogen 12648-010) at 2-5×10^6 cells/mL and then aliquoted at 1 mL volumes into cryovials. Cryovials are stored initially at −80° C. for 16 hours, and then transferred to liquid nitrogen for long term storage.
One day before the planned initiation of compound treatment portion of the assay, one vial of assay ready frozen cells is thawed, and the cells are washed with 50 mL of growth medium. Cells are counted and then diluted to 2.8×10^4 cells/mL and then plated at a rate of 2500 cells/well (90 μL per well) to BD Poly-D-Lysine, 96 well black plates (BD Biocoat 35-4640). Plates are then covered and incubated overnight under 5% CO2 at 37° C. The next day in a separate plate (V bottom Nunc 249946), a ten-point compound dilution series for each compound is prepared in growth media containing 2% DMSO (v/v, 0.2% final) with or without 100 mM NAM (10 mM final). Then 10 μL of compounds after a ten-point series dilution from either 2 or 0.1 μM (depending potency of each compound) to 50 pM or 5 pM (final) are added to the wells of the cell plates. Cell plates are covered and incubated for 72 hours under 5% CO2 at 37° C.
On the day of the viability assessment, one vial of GF-AFC substrate (CELL TITER-FLUOR™ Cell Viability Assay Kit, Promega G6081) is vortexed and the substrate is transferred to one vial of thawed CELL TITER-FLUOR™ Assay Buffer. The resulting CELL TITER-FLUOR™ reagent is then vortexed well to thoroughly dissolve the substrate. The CELL TITER-FLUOR™ reagent is then diluted (1:2) in growth medium and 50 μL of diluted CELL TITER-FLUOR™ reagent is added to each well of the cell plate. The cell plate is covered and incubated under 5% CO2 at 37° C. for 1-3 hours. Finally the cell plates are removed from the incubator and the well fluorescence is measured on an Envision® Multilabel Reader (Perkin Elmer, λeX 355/λem 495). Fluorescence from compound treated wells is compared to the no cell and no compound treatment control wells to calculate percent inhibition. The percent inhibition and ten-point compound concentration data is fit to a four-parameter logistic equation using ACTIVITYBASE 4.0 Equation 205. Each compound is tested 2-4 times in this assay.

SMILES strings stand for the structures. pIC50: −log10 of the molar value. Bounds are passed on as bounds.

Turning to `O=C(CC1CCCCO1)Nc1ccc2c(c1)CCN(C(=O)COc1cccnc1)C2` (single isomer, unassigned; isomer 2) [Example 13, N-[2-[2-(3-Pyridyloxy)acetyl]-3,4-dihydro-1H-isoquinolin-6-yl]-2-tetrahydropyran-2-yl-acetamide (isomer 2)], the pIC50 in assay [1] was not below 6.71; in the assay with A2780 cells, more than 6.17.

Consider `CC(c1ccc2c(c1)CCN(C(=O)COc1cccnc1)C2)N1CCN(C(=O)C2CCOCC2)CC1` (single isomer, unassigned; isomer 2) [Example 20, 2-(3-Pyridyloxy)-1-[6-[1-[4-(tetrahydropyran-4-carbonyl)piperazin-1-yl]ethyl]-3,4-dihydro-1H-isoquinolin-2-yl]ethanone (isomer 2)], for which the pIC50 is not below 6.71 in assay [1] and more than 6.17 with A2780 cells.

Take `O=C(COc1cccnc1)N1CCc2cc(NS(=O)(=O)c3ccccn3)ccc2C1` [Example 3, N-{2-[(Pyridin-3-yloxy)acetyl]-1,2,3,4-tetrahydroisoquinolin-6-yl}pyridine-2-sulfonamide]: the pIC50 in assay [1] was not below 6.71; with A2780 cells it was more than 6.17.

As for `O=C(COc1cccnc1)N1CCc2cc(NS(=O)(=O)C3CCOCC3)ccc2C1` [Example 4, N-{2-[(Pyridin-3-yloxy)acetyl]-1,2,3,4-tetrahydroisoquinolin-6-yl}tetrahydro-2H-pyran-4-sulfonamide], the results for the pIC50 (in assay [1]; in the assay on A2780 cells) were not below 6.71 and more than 6.17, respectively.

`O=C(COc1cccnc1)N1CCc2cc(NS(=O)(=O)CCC(F)(F)F)ccc2C1` [Example 5, 3,3,3-Trifluoro-N-{2-[(pyridin-3-yloxy)acetyl]-1,2,3,4-tetrahydroisoquinolin-6-yl}propane-1-sulfonamide]: the pIC50 in assay [1] was not below 6.71; with A2780 cells, more than 6.17.

As for `O=C(COc1cccnc1)N1CCc2cc(NS(=O)(=O)CC3CC3)ccc2C1` [Example 6, 1-Cyclopropyl-N-{2-[(pyridin-3-yloxy)acetyl]-1,2,3,4-tetrahydroisoquinolin-6-yl}methanesulfonamide], the figures for the pIC50 (in assay [1]; with A2780 cells) were not below 6.71 and more than 6.17, respectively.

With `CC(C)OCCS(=O)(=O)Nc1ccc2c(c1)CCN(C(=O)COc1cccnc1)C2` [Example 7, 2-Isopropoxy-N-[2-[2-(3-pyridyloxy)acetyl]-3,4-dihydro-1H-isoquinolin-6-yl]ethanesulfonamide], the pIC50 in assay [1] is not below 6.71; in the assay on A2780 cells it was more than 6.17.

On to `O=C(COc1cccnc1)N1CCc2cc(NS(=O)(=O)C3CCN(C4COC4)CC3)ccc2C1` [Example 8, 1-(Oxetan-3-yl)-N-[2-[2-(3-pyridyloxy)acetyl]-3,4-dihydro-1H-isoquinolin-6-yl]piperidine-4-sulfonamide], for which the pIC50 is not below 6.71 in assay [1] and more than 6.17 in the assay with A2780 cells.

Take `CN1CCC(S(=O)(=O)Nc2ccc3c(c2)CCN(C(=O)COc2cccnc2)C3)CC1` [Example 9, 1-Methyl-N-{2-[(pyridin-3-yloxy)acetyl]-1,2,3,4-tetrahydroisoquinolin-6-yl}piperidine-4-sulfonamide]: the pIC50 is not below 6.71 in assay [1] and more than 6.17 with A2780 cells.

On to `O=C(COc1cccnc1)N1CCc2cc(NS(=O)(=O)C3CCN(C(=O)C4CCOCC4)CC3)ccc2C1` [Example 10, N-[2-[2-(3-Pyridyloxy)acetyl]-3,4-dihydro-1H-isoquinolin-6-yl]-1-(tetrahydropyran-4-carbonyl)piperidine-4-sulfonamide], for which the pIC50 is not below 6.71 in assay [1] and more than 6.17 in the assay on A2780 cells.

Consider `CCC(C)(O)CC(=O)Nc1ccc2c(c1)CCN(C(=O)COc1cccnc1)C2` (stereo not drawn) [Example 11, 3-Hydroxy-3-methyl-N-[2-[2-(3-pyridyloxy)acetyl]-3,4-dihydro-1H-isoquinolin-6-yl]pentanamide], for which the pIC50 in assay [1] is not below 6.71; with A2780 cells it was more than 6.17.

As to `CC(O)(CC(=O)Nc1ccc2c(c1)CCN(C(=O)COc1cccnc1)C2)C(F)(F)F` (stereo not drawn) [Example 12, 4,4,4-Trifluoro-3-hydroxy-3-methyl-N-[2-[2-(3-pyridyloxy)acetyl]-3,4-dihydro-1H-isoquinlin-6-yl]butanamide], the pIC50 in assay [1] was not below 6.71; in the assay on A2780 cells it was more than 6.17.

`CC(C)(C)CC(=O)Nc1ccc2c(c1)CCN(C(=O)COc1cccnc1)C2` [Example 14, 3,3-Dimethyl-N-{2-[(pyridin-3-yloxy)acetyl]-1,2,3,4-tetrahydroisoquinolin-6-yl}butanamide]: the pIC50 in assay [1] was not below 6.71; in the assay on A2780 cells it was more than 6.17.

As to `CC(C)(O)CC(=O)Nc1ccc2c(c1)CCN(C(=O)COc1cccnc1)C2` [Example 15, 3-Hydroxy-3-methyl-N-{2-[(pyridin-3-yloxy)acetyl]-1,2,3,4-tetrahydroisoquinolin-6-yl}butanamide], the pIC50 in assay [1] is not below 6.71; with A2780 cells, more than 6.17.

For `O=C(COc1cccnc1)N1CCc2cc(CN3CCN(C(=O)C4CCOCC4)CC3)ccc2C1` [Example 16, 2-(Pyridin-3-yloxy)-1-[6-{[4-(tetrahydro-2H-pyran-4-ylcarbonyl)piperazin-1-yl]methyl}-3,4-dihydroisoquinolin-2(1H)-yl]ethanone], the results for the pIC50 (in assay [1]; in the assay on A2780 cells) were not below 6.71 and more than 6.17, respectively.

With `O=C(CN1CCOCC1)N1CCN(Cc2ccc3c(c2)CCN(C(=O)COc2cccnc2)C3)CC1` [Example 17, 2-(Morpholin-4-yl)-1-[4-({2-[(pyridin-3-yloxy)acetyl]-1,2,3,4-tetrahydroisoquinolin-6-yl}methyl)piperazin-1-yl]ethanone], the pIC50 in assay [1] was not below 6.71; with A2780 cells, more than 6.17.

On to `CC(C)(O)CC(=O)N1CCN(Cc2ccc3c(c2)CCN(C(=O)COc2cccnc2)C3)CC1` [Example 18, 3-Hydroxy-3-methyl-1-[4-({2-[(pyridin-3-yloxy)acetyl]-1,2,3,4-tetrahydroisoquinolin-6-yl}methyl)piperazin-1-yl]butan-1-one], for which the pIC50 in assay [1] is not below 6.71; with A2780 cells it was more than 6.17.

As for `O=C(CC1CCOCC1)N1CCN(Cc2ccc3c(c2)CCN(C(=O)COc2cccnc2)C3)CC1` [Example 19, 2-(Pyridin-3-yloxy)-1-[6-{[4-(tetrahydro-2H-pyran-4-ylacetyl)piperazin-1-yl]methyl}-3,4-dihydroisoquinolin-2(1H)-yl]ethanone], the pIC50 in assay [1] is not below 6.71; in the assay on A2780 cells, more than 6.17.

The values are drawn from patent US20160229835A1, “NOVEL PYRIDYLOXYACETYL TETRAHYDROISOQUINOLINE COMPOUNDS USEFUL AS NAMPT INHIBITORS” (ELI LILLY AND COMPANY, priority 2013, published 2016).
